Results taken from US20180338980A1, “AROMATIC SULFONAMIDE DERIVATIVES” (BAYER PHARMA AKTIENGESELLSCHAFT, priority 2015, published 2018).
Where “and” joins values, the source holds several entries; their conditions need not be identical. Equal entries are not always repeated.

Tests used:
P2X4 [1] = biological target: T1, P2X4 (Homo sapiens, UniProt Q99571); experiment: Assay A: human P2X4 receptor cell line, FLIPR calcium assay (Fluo-8, agonist Bz-ATP at EC80); format: cell-based; design: host or cells: HEK 293 (recombinant, constitutively expressing; with mitochondrial photina in Assay B); conditions: HEK human P2X4 cells, Fluo-8 FLIPR; for IC50: Bz-ATP at EC80, average values; for Emax: percentage of maximal inhibition, read-out: human P2X4 Assay A avg Efficacy
T1 sequence (Q99571 1-388): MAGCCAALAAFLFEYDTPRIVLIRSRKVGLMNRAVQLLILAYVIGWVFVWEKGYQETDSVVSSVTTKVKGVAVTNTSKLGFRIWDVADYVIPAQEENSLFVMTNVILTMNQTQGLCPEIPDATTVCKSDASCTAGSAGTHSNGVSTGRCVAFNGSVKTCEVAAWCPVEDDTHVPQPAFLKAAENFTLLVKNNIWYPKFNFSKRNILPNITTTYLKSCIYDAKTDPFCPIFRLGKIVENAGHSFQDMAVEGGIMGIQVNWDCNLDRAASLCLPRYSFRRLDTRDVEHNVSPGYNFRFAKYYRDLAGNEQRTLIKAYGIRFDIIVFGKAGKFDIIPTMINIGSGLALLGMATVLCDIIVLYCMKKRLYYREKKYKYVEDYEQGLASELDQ
Procedure: A fluorescent imaging plate reader (FLEX/FLIPR station; Molecular Devices) was used to monitor intracellular calcium levels using the calcium-chelating dye Fluo-8 (Molecular Probes). […] Cells expressing purinergic receptors human P2X4 (HEK human P2X4: PerkinElmer, Product No.: AX-015-PCF) were plated at a density of 20,000 cells/well in poly-D-lysine-coated 384-well plates approximately 20 hours before beginning the assay. On the day of the assay, the medium was removed and 30 μl of dye buffer (Hank's balanced salt solution, 10 mM HEPES, 1.8 mM CaCl2), 1 mM MgCl2, 2 mM probenecid, 5 mM D-glucose monohydrate, 5 μM Fluo-8, pH=7.4) was added for 30 min at […] and 5% CO2. The antagonist in probenecid buffer (Hank's balanced salt solution, 10 mM HEPES, 1.8 mM CaCl2, 1 mM MgCl2, 2 mM probenecid, 5 mM D-glucose monohydrate, pH=7.4) was added in a volume of 10 μl and allowed to incubate for 30 min at room temperature. The final assay DMSO concentration is 0.5%. The agonist, Bz-ATP, is added in a volume of 10 μl at a concentration representing the EC80 value. The fluorescence was measured for an interval of 120 sec at 2 sec intervals and analyzed based on the increase in peak relative fluorescence units (RFU) compared to the basal fluorescence. Peak fluorescence was used to determine the response to agonist obtained at each concentration of antagonist by the following equation:
% Response=100*(RFU(drug)−RFU(control))/(RFU(DMSO)−RFU(control))
The compounds were tested in triplicates per plate and mean values were plotted in Excel XLFit to determine IC50 values, percentage of maximal inhibition and the Hill coefficients.

P2X4 [2] = biological target: T1, P2X4; experiment: Assay B: human P2X4 receptor cell line, mitochondrial photina luminescence (agonist Bz-ATP at EC50); format: cell-based; design: host or cells: HEK 293 (recombinant, constitutively expressing; with mitochondrial photina in Assay B); conditions: HEK human P2X4 cell line, photina luminescence, agonist Bz-ATP at EC50, average; for Emax: read-out: human P2X4 Assay B avg Efficacy
Outline: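 Bz-ATP at its EC50 activates human P2X4 stably expressed in a cell line that also carries the calcium-sensitive photoprotein mitochondrial photina (coelenterazine cofactor). Light emitted on calcium influx is measured straight away in a luminometer. Reduced luminescence indicates antagonism.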

`CC(Oc1ccc(NC(=O)Cc2ccccc2Cl)cc1S(N)(=O)=O)c1ccccc1` (single isomer, unassigned) [Example 148A, 2-(2-Chlorophenyl)-N-[4-(1-phenylethoxy)-3-sulfamoylphenyl]acetamide] was tested, and the IC50 (P2X4 [1]) was 74 nM, the Emax (P2X4 [1]) was 92% and the IC50 (P2X4 [2]) was 143 nM. The Emax (P2X4 [2]) was 68%.
For `CN(C)c1cccc(Oc2ccc(NC(=O)Cc3ccccc3Cl)cc2S(N)(=O)=O)c1` [Example 002, 2-(2-Chlorophenyl)-N-{4-[3-(dimethylamino)phenoxy]-3-sulfamoylphenyl}acetamide], the IC50 (P2X4 [1]) was 29 nM, the Emax (P2X4 [1]) was 96% and the IC50 (P2X4 [2]) was 79 nM. It also gave an Emax (P2X4 [2]) of 81%.
`CC(C)c1cccc(Oc2ccc(NC(=O)Cc3ccccc3Cl)cc2S(N)(=O)=O)c1` [Example 004, 2-(2-Chlorophenyl)-N-[4-(3-isopropylphenoxy)-3-sulfamoylphenyl]acetamide] gave an IC50 (P2X4 [1]) of 149 nM, an Emax (P2X4 [1]) of 90% and an IC50 (P2X4 [2]) of 95 nM. It also gave an Emax (P2X4 [2]) of 68%.
Compound `NS(=O)(=O)c1cc(NC(=O)Cc2ccccc2Cl)ccc1Oc1cccc(C(F)(F)F)c1` [Example 005, 2-(2-Chlorophenyl)-N-{3-sulfamoyl-4-[3-(trifluoromethyl)phenoxy]phenyl}acetamide] has an IC50 (P2X4 [1]) of 77 nM, an Emax (P2X4 [1]) of 94% and an IC50 (P2X4 [2]) of 90 nM. For the same compound, the Emax (P2X4 [2]) was 89%.
With `NS(=O)(=O)c1cc(NC(=O)Cc2ccccc2Cl)ccc1Oc1cccc(OC(F)(F)F)c1` [Example 006, 2-(2-Chlorophenyl)-N-{3-sulfamoyl-4-[3-(trifluoromethoxy)phenoxy]phenyl}acetamide] the IC50 (P2X4 [1]) was 99 nM, the Emax (P2X4 [1]) was 87% and the IC50 (P2X4 [2]) was 73 nM. It also gave an Emax (P2X4 [2]) of 108%.
For `CC(=O)c1cccc(Oc2ccc(NC(=O)Cc3ccccc3Cl)cc2S(N)(=O)=O)c1` [Example 007, N-[4-(3-Acetylphenoxy)-3-sulfamoylphenyl]-2-(2-chlorophenyl)acetamide], the IC50 (P2X4 [1]) was 16 nM, the Emax (P2X4 [1]) was 93% and the IC50 (P2X4 [2]) was 122 nM. It also gave an Emax (P2X4 [2]) of 104%.
Compound `NS(=O)(=O)c1cc(NC(=O)Cc2ccccc2Cl)ccc1Oc1ccc2c(c1)OCO2` [Example 008, N-[4-(1,3-Benzodioxol-5-yloxy)-3-sulfamoylphenyl]-2-(2-chlorophenyl)acetamide] has an IC50 (P2X4 [1]) of 44 nM, an Emax (P2X4 [1]) of 88% and an IC50 (P2X4 [2]) of 73 nM. It also gave an Emax (P2X4 [2]) of 91%.
For `NS(=O)(=O)c1cc(NC(=O)Cc2ccccc2Cl)ccc1Oc1ccccc1F` [Example 010, 2-(2-Chlorophenyl)-N-[4-(2-fluorophenoxy)-3-sulfamoylphenyl]acetamide], the IC50 (P2X4 [1]) was 27 nM, the Emax (P2X4 [1]) was 90% and the IC50 (P2X4 [2]) was 73 nM. The Emax (P2X4 [2]) was 76%.
`NS(=O)(=O)c1cc(NC(=O)Cc2ccccc2Cl)ccc1Oc1cccc(F)c1` [Example 011, 2-(2-Chlorophenyl)-N-[4-(3-fluorophenoxy)-3-sulfamoylphenyl]acetamide] was tested, and the IC50 (P2X4 [1]) was 41 nM, the Emax (P2X4 [1]) was 85% and the IC50 (P2X4 [2]) was 43 nM. The Emax (P2X4 [2]) was 67%.
For `CS(=O)(=O)c1cccc(Oc2ccc(NC(=O)Cc3ccccc3Cl)cc2S(N)(=O)=O)c1` [Example 016, 2-(2-Chlorophenyl)-N-{4-[3-(methylsulfonyl)phenoxy]-3-sulfamoylphenyl}acetamide], the IC50 (P2X4 [1]) was 96 nM, the Emax (P2X4 [1]) was 81% and the IC50 (P2X4 [2]) was 112 nM. It also gave an Emax (P2X4 [2]) of 72%.
With `Cc1cccc(Oc2ccc(NC(=O)Cc3ccccc3Cl)cc2S(N)(=O)=O)c1` [Example 018, 2-(2-Chlorophenyl)-N-[4-(3-methylphenoxy)-3-sulfamoylphenyl]acetamide] the IC50 (P2X4 [1]) was 9 nM, the Emax (P2X4 [1]) was 93% and the IC50 (P2X4 [2]) was 47 nM. For the same compound, the Emax (P2X4 [2]) was 70%.
`NS(=O)(=O)c1cc(NC(=O)Cc2ccccc2Cl)ccc1Oc1cccc(-n2cnnc2)c1` [Example 020, 2-(2-Chlorophenyl)-N-{3-sulfamoyl-4-[3-(4H-1,2,4-triazol-4-yl)phenoxy]phenyl}acetamide] gave an Emax (P2X4 [1]) of 90% and an Emax (P2X4 [2]) of 96%.
Work on `COc1cccc(Oc2ccc(NC(=O)Cc3ccccc3Cl)cc2S(N)(=O)=O)c1` [Example 022, 2-(2-Chlorophenyl)-N-[4-(3-methoxyphenoxy)-3-sulfamoylphenyl]acetamide] yielded an Emax (P2X4 [1]) of 87% and an Emax (P2X4 [2]) of 54%.
In the case of `NS(=O)(=O)c1cc(NC(=O)Cc2ccccc2Cl)ccc1Oc1ccc(C(F)(F)F)nc1` [Example 283, 2-(2-Chlorophenyl)-N-(3-sulfamoyl-4-{[6-(trifluoromethyl)pyridin-3-yl]oxy}phenyl)-acetamide], the IC50 (P2X4 [1]) is reported as 8050 nM and the Emax (P2X4 [1]) is reported as 62%.
`NS(=O)(=O)c1cc(NC(=O)Cc2ccccc2Cl)ccc1Oc1cc(C(F)(F)F)c(Cl)cn1` [Example 284, 2-(2-Chlorophenyl)-N-(4-{[5-chloro-4-(trifluoromethyl)pyridin-2-yl]oxy}-3-sulfamoyl-phenyl)acetamide] was tested, and the IC50 (P2X4 [1]) was 10900 nM and the Emax (P2X4 [1]) was 82%.
Compound `NS(=O)(=O)c1cc(NC(=O)Cc2ccccc2Cl)ccc1Oc1cnc(Cl)c(F)c1` [Example 286, N-{4-[(6-Chloro-5-fluoropyridin-3-yl)oxy]-3-sulfamoylphenyl}-2-(2-chlorophenyl)-acetamide] has an IC50 (P2X4 [1]) of 237 nM and an Emax (P2X4 [1]) of 55%.
With `NS(=O)(=O)c1cc(NC(=O)Cc2ccccc2Cl)ccc1OCC1(O)CCC(F)(F)CC1` [Example 287, 2-(2-Chlorophenyl)-N-{4-[(4,4-difluoro-1-hydroxycyclohexyl)methoxy]-3-sulfamoyl-phenyl}acetamide] the IC50 (P2X4 [1]) was 187 nM and the Emax (P2X4 [1]) was 58%.
`NS(=O)(=O)c1cc(NC(=O)Cc2ccccc2Cl)ccc1OCC1(O)CCCCC1` [Example 288, 2-(2-Chlorophenyl)-N-{4-[(1-hydroxycyclohexyl)methoxy]-3-sulfamoylphenyl}-acetamide] showed an IC50 (P2X4 [1]) of 988 nM and an Emax (P2X4 [1]) of 57%.
In the case of `NS(=O)(=O)c1cc(NC(=O)Cc2ccccc2F)cc(F)c1Oc1cccc(Cl)c1` [Example 289, N-[4-(3-Chlorophenoxy)-3-fluoro-5-sulfamoylphenyl]-2-(2-fluorophenyl)acetamide], the IC50 (P2X4 [1]) is reported as greater than 25000 nM and the Emax (P2X4 [1]) is reported as 34%.
`NS(=O)(=O)c1cc(NC(=O)Cc2ccccc2C(F)F)cc(F)c1Oc1cccc(Cl)c1` [Example 290, N-[4-(3-Chlorophenoxy)-3-fluoro-5-sulfamoylphenyl]-2-[2-(difluoromethyl)-phenyl]acetamide] was tested, and the IC50 (P2X4 [1]) was 16000 nM and the Emax (P2X4 [1]) was 66%.
`NS(=O)(=O)c1cc(NC(=O)Cc2ccccc2Cl)cc(F)c1Oc1cccc(Cl)c1` [Example 291, N-[4-(3-Chlorophenoxy)-3-fluoro-5-sulfamoylphenyl]-2-(2-chlorophenyl)acetamide] was tested, and the IC50 (P2X4 [1]) was 10500 nM and > 25000 nM and the Emax (P2X4 [1]) was 57%.
Work on `NS(=O)(=O)c1cc(NC(=O)Cc2cc(F)ccc2Cl)cc(F)c1Oc1cccc(Cl)c1` [Example 292, 2-(2-Chloro-5-fluorophenyl)-N-[4-(3-chlorophenoxy)-3-fluoro-5-sulfamoyl-phenyl]acetamide] yielded an IC50 (P2X4 [1]) of 15100 nM and an Emax (P2X4 [1]) of 69%.
In the case of `NS(=O)(=O)c1cc(NC(=O)Cc2ccccc2F)cnc1Oc1cccc(Cl)c1` [Example 293, N-[6-(3-Chlorophenoxy)-5-sulfamoylpyridin-3-yl]-2-(2-fluorophenyl)acetamide], the IC50 (P2X4 [1]) is reported as 72 nM and the Emax (P2X4 [1]) is reported as 67%.
`NS(=O)(=O)c1cc(NC(=O)Cc2ccccc2C(F)(F)F)cnc1Oc1cccc(Cl)c1` [Example 294, N-[6-(3-Chlorophenoxy)-5-sulfamoylpyridin-3-yl]-2-[2-(trifluoromethyl)phenyl]-acetamide] gave an IC50 (P2X4 [1]) of 107 nM and an Emax (P2X4 [1]) of 84%.
With `NS(=O)(=O)c1cc(NC(=O)Cc2ccccc2C(F)F)cnc1Oc1cccc(Cl)c1` [Example 295, N-[6-(3-Chlorophenoxy)-5-sulfamoylpyridin-3-yl]-2-[2-(difluoromethyl)phenyl]-acetamide] the IC50 (P2X4 [1]) was 155 nM and the Emax (P2X4 [1]) was 85%.
`NS(=O)(=O)c1cc(NC(=O)Cc2cc(F)ccc2Cl)cnc1Oc1cccc(Cl)c1` [Example 296, 2-(2-Chloro-5-fluorophenyl)-N-[6-(3-chlorophenoxy)-5-sulfamoylpyridin-3-yl]-acetamide] was tested, and the IC50 (P2X4 [1]) was 59 nM and the Emax (P2X4 [1]) was 78%.
